B1: IFNγ: interferon gamma, cytokine used to stimulate Cd47 upregulation (protein, UniProt P01580 23-155, looked up)
Interferon gamma: HGTVIESLESLNNYFNSSGIDVEEKSLFLDIWRNWQKDGDMKILQSQIISFYLRLFEVLKDNQAISNNISVIESHLITTFFSNSKAKKDAFMSIAKFEVNNPQVQRQAFNELIRVVHQLLPESSLRKRKRSRC

Columns and labels:
[1] = Laengle J, et al. (2020); cited from earlier work
[2] = tested on: A31A7 macrophages and BMDMs; experiment: Macrophage M1/M2 marker gene expression by qRT-PCR; assay type: cell-based, mouse; conditions: A31A7; qRT-PCR (FIG. 7D-FIG. 7E)
Procedure: Bone marrow-derived macrophages were isolated from the femurs and tibias of wild-type C57/Bl6, HDAC6 knockout (C57BL/6J-Hdac6em2Lutzy/J, 029318, Jackson Laboratory), or UBC-GFP (C57BL/6-Tg(UBC-GFP)30Scha/J, 004353, Jackson Laboratory). Isolated bone marrow cells were cultured in RPMI 1640 complete medium with 10% FBS, 1% NEAA, and 1% penicillin-streptomycin in 5% CO2 at 37° C. Medium was supplemented with murine recombinant M-CSF (20 ng/mL, 576404, Biolegend) to differentiate monocytes into macrophages. Three days after bone marrow isolation, undifferentiated and floating cells were washed with PBS and replaced with fresh RPMI media. […]
(§1) Macrophages were polarized to M1-like phenotype using 50 ng/mL of interferon gamma (IFNγ, 575306, Biolegend) and 100 ng/mL of bacterial lipopolysaccharide (LPS, L2880, Sigma Aldrich, St. Louis, MO) for 24 hours. To polarize macrophages towards the M2-like phenotype, macrophages were stimulated with 20 ng/mL of IL-4 (214-14, PeproTech) and 20 ng/mL of IL-13 (575904, Biolegend). THP1 monocytes were treated with 5 ng/mL of phorbol 12-myristate 13-acetate (PMA) to induce differentiation into macrophages. Once converted to macrophages, media was replaced to remove PMA prior to treatment and/or polarization. Polarization towards M1 and M2 phenotypes was performed with respective recombinant human cytokines from PeproTech: 50 ng/mL of IFNγ (300-02), 20 ng/mL IL-4 (200-04), and 20 ng/mL IL-13 (200-13). 100 ng/mL LPS was also used to polarize toward the M1 phenotype. 3. In vivo Studies.
(§2) qRT-PCR: Total RNA was extracted from cells using the Trizol reagent according to manufacturer's instructions (ThermoFisher Scientific, 15596018). Samples were then processed immediately or stored at −80° C. RNA was quantified using a NanoDrop One Spectrophotometer (ThermoFisher Scientific). The 260/280 ratios were routinely over 1.8. Sample cDNA was produced using the iScript cDNA synthesis kit (Bio-Rad, 1708891). Target mRNA was quantified using MyIQ single-color real-time PCR detection system from Bio-Rad (Bio-Rad, Hercules, CA) and iQ SYBR green Supermix (Bio-Rad, 1708882). The following primers were synthesized by Invitrogen (Waltham, MA) with sequences designed by Origene (Rockville, MD): mouse R-actin (MP200232), mouse Nos2 (MP208933), mouse MRC1 (MP207800), human R-actin (HP204660), human IL-1β (HP200544), human MRC1 (HP206121), human NOS2 (HP200591), human CD209 (HP214086), mouse SIRPα (MP215450), mouse LRP1 (MP207604), human LRP1 (HP206040), mouse MFGE8 (MP208190), human MFGE8 (HP225757), mouse CD36 (MP201923), human CD36 (HP200058), and mouse CD47 (MP201932). Primers for mouse ARG-1 (PPM31770C) and human SIRPα (QT01031051) were purchased from Qiagen (Hilden, Germany). Human CD47 primer sequences were obtained from Sudo T, et al and are 5′-[…]-3′ (sense) (SEQ ID NO:01) and 5′-[…]-3′ (antisense) (SEQ ID NO:02) (Sudo T, et al. (2017) Oncol. Lett. 14:801-809). Human CD86 primer sequences are 5′-[…]-3′ (sense) (SEQ ID NO:03) and 5′-[…]-3′ (antisense) (SEQ ID NO:04). Mouse CD80 sequences are 5′-[…]-3′ (sense) (SEQ ID NO:05) and 5′-[…]-3′ (antisense) (SEQ ID NO:06). Cycling conditions were set as per manufacturer's instructions. Single product amplification was confirmed by melting curve analysis. Quantification is expressed in arbitrary units and target mRNA levels were normalized to R-actin expression.

[3] = tested on: human THP1-derived macrophages; experiment: Pro-phagocytic signal gene expression in THP1-derived macrophages; assay type: cell-based; conditions: human THP1-derived macrophages (FIG. 8E); corroboration of NextA increase
Procedure: as §1
(§3) qRT-PCR: Total RNA was extracted from cells using the Trizol reagent according to manufacturer's instructions (ThermoFisher Scientific, 15596018). Samples were then processed immediately or stored at −80° C. RNA was quantified using a NanoDrop One Spectrophotometer (ThermoFisher Scientific). The 260/280 ratios were routinely over 1.8. Sample cDNA was produced using the iScript cDNA synthesis kit (Bio-Rad, 1708891). Target mRNA was quantified using MyIQ single-color real-time PCR detection system from Bio-Rad (Bio-Rad, Hercules, CA) and iQ SYBR green Supermix (Bio-Rad, 1708882). The following primers were synthesized by Invitrogen (Waltham, MA) with sequences designed by Origene (Rockville, MD): mouse R-actin (MP200232), mouse Nos2 (MP208933), mouse MRC1 (MP207800), human R-actin (HP204660), human IL-1β (HP200544), human MRC1 (HP206121), human NOS2 (HP200591), human CD209 (HP214086), mouse SIRPα (MP215450), mouse LRP1 (MP207604), human LRP1 (HP206040), mouse MFGE8 (MP208190), human MFGE8 (HP225757), mouse CD36 (MP201923), human CD36 (HP200058), and mouse CD47 (MP201932). […] Quantification is expressed in arbitrary units and target mRNA levels were normalized to R-actin expression.

THP1-derived macrophages = experiment: M1/M2 marker gene expression in THP1-derived macrophages by qRT-PCR; assay type: cell-based, human; conditions: gene expression (FIG. 7H)
Procedure: as §1
as §2, with “expression. […]” for “expression.”

SM1 melanoma cells = experiment: Cd47 mRNA upon IFNγ stimulation in SM1 cells; assay type: cell-based, mouse
Procedure: as §3, with “(MP201932). Primers for mouse ARG-1 (PPM31770C) and human SIRPα (QT01031051) were purchased from Qiagen (Hilden, Germany).” for “(MP201932).”
(§4) Although the mechanism by which IFNγ drives CD47 upregulation is unclear, IFNγ expression correlates to CD47 expression in skin cutaneous melanoma (Ye Z H, et al. (2021) Transl. Oncol. 14:101162). The kinetics of Cd47 mRNA in SM1 and B16 cells upon IFNγ stimulation (100 ng/mL) were evaluated and these mouse melanoma models were determined to have different kinetics (FIG. 9A-FIG. 9B). It was determined that 12 hours was a time point for both models to sustain the IFNγ-mediated upregulation. In FIG. 9B, the role of HDAC6 inhibitors NextA and Tubastatin A in abrogating Cd47 upregulation upon stimulation with IFNγ for 12 hours was evaluated.

B16 melanoma cells = experiment: Cd47 mRNA upon IFNγ stimulation in B16 cells; assay type: cell-based, mouse
Procedure: as §3, with “(MP201932). Primers for mouse ARG-1 (PPM31770C) and human SIRPα (QT01031051) were purchased from Qiagen (Hilden, Germany).” for “(MP201932).”
as §4

[4] = target: mouse CD47 on the surface of SM1 melanoma cells (mouse) (UniProt Q61735); experiment: flow cytometry titration on SM1 cells; free CD47 read with PE anti-mouse CD47 (miap301), bound antibody read with PE anti-rat IgG2a
[5] = IFNγ stimulation (100 ng/mL) for 12 hours

Chain of UniProt Q61735 (Q61735 19-303): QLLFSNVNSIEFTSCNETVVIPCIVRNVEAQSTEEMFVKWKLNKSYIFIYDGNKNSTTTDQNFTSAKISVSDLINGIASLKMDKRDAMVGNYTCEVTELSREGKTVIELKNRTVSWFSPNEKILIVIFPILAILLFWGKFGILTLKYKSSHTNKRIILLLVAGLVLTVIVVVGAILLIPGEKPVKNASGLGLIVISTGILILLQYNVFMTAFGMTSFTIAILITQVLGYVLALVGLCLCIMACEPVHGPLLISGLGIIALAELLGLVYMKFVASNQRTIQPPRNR

| Molecule | Arg1 in M2 polarized macrophages [2] | Cd80 expression in M1-like macrophages [2] | expression of pro-phagocytic signals [3] | effects on THP1-derived macrophage M2-like polarization (THP1-derived macrophages) | also measured |
| --- | --- | --- | --- | --- | --- |
| O=C(CCCCCCC(=O)Nc1ccccc1)NO [SAHA, suberoylanilide hydroxamic acid] |  |  |  |  | trastuzumab-mediated phagocytosis [1]: enhance trastuzumab-mediated phagocytosis |
| O=C(CCCCCCC(=O)Nc1ccc([C@H]2O[C@@H](CSc3nc(-c4ccccc4)c(-c4ccccc4)o3)C[C@@H](c3ccc(CO)cc3)O2)cc1)NO [Tubacin] | downregulated | upregulated | corroborated | verified |  |
| CN1CCc2c(c3ccccc3n2Cc2ccc(C(=O)NO)cc2)C1 [Tubastatin A] | downregulated | upregulated | corroborated | verified | IFNγ-driven Cd47 upregulation at the transcriptional level (SM1 melanoma cells; IFNγ for 12 hours): repressed these effects; IFNγ-driven Cd47 upregulation at the transcriptional level (B16 melanoma cells; IFNγ for 12 hours): repressed these effects |
| anti-mouse CD47 (clone miap301, 127502, Biolegend) (antibody) |  |  |  |  | lowest antibody concentration that provided maximum surface CD47 blockade and epitope saturation [4]: 25 µg/mL |
| B1 |  |  |  |  | Cd47 upregulation (SM1 melanoma cells; [5]): 1.6 fold; Cd47 upregulation (B16 melanoma cells; [5]): 10 fold |

Reference: patent US20230391868A1, “COMPOSITIONS FOR AND METHODS OF TREATING CANCER” (The George Washington University, priority 2022, published 2023)
